Columns and labels:
[1] = Desorption of pharmaceutical from heat-sensitive polymer film on magnetic carrier by cooling below LCST; assay type: physicochemical; conditions: Fe0.49Rh0.51 plates with graphite layer, film of copolymer NIPAAm with 35 mol % tBuAM; cooled below LCST to 15.9° C.
Description: The method may be realized, for example, as follows: quenched magnetic material Fe0.49Rh0.51 covered with a heat-sensitive polymer together with a pharmaceutical (for example, anti-inflammatory) in the form of particles in of about 150-200 nm is administered inside of an organism through a catheter and delivery of the aforementioned particles is performed to a target organ or a tissue. Magnetic field of 2 T is applied on the area, where the particles are concentrated. The magnetic material is cooled by 13° C., which results in refrigerating of a heat-sensitive polymer, for example (co)polymer N-iso-propyl acrylamide, down to temperature below LCST, in this case down to 24° C., and desorption of the pharmaceutical from the surface of heat-sensitive polymer takes place.
A procedure analogous to that described in Example 4, but administration of a pharmaceutical Adriablastin in an organism is made, when the magnetic carrier represents alloy of iron-rhodium Fe0.49Rh0.51, which surface is covered with copolymer NIPAAm with 35 mol % of tBuAM film, with alloy surface preliminary covered with a thin protective graphite layer (preventing oxidation); the magnetic material is prepared in the form of plates. […]

[2] = F 127 ferrofluid gel, constant magnetic field; cited from earlier work

Compound	Time of desorption [1] [min]	Increase of release after application of magnetic field to the gel [2] [%]
COc1cccc2c1C(=O)c1c(O)c3c(c(O)c1C2=O)C[C@@](O)(C(=O)CO)C[C@@H]3O[C@H]1C[C@H](N)[C@H](O)[C@H](C)O1 [Adriablastin]	30 ± 5	–
vitamin B12	–	20
